Earlier results as cited in paper PMC4561207 (Child's nervous system : ChNS : official journal of the …, 2015).

Settings: adults treated with a 5 mg flat dose; cited from earlier work

COc1cc2c(Oc3ccc4[nH]c(C)cc4c3F)ncnc2cc1OCCCN1CCCC1 [cediranib, Cediranib]
steady-state systemic exposure (AUC): 226 ng·h/mL
